Test results as given in patent US12466812B2, “Pyridinyltriazine derivative having protein kinase inhibitory activity, and pharmaceutical composition for preventing, ameliorating, or treating cancer comprising same” (KOREA INSTITUTE OF SCIENCE AND TECHNOLOGY, priority 2019, dated 2025).

Tests used:
Experiment in all cases: Kinase panel biochemical assay
MPSK1 = MPSK1 (Homo sapiens, UniProt O75716); settings: single concentration of 1 μM; panel of 369 kinases; read-out: kinase activity inhibited (%), MPSK1
Chain of MPSK1 (O75716 whole entry): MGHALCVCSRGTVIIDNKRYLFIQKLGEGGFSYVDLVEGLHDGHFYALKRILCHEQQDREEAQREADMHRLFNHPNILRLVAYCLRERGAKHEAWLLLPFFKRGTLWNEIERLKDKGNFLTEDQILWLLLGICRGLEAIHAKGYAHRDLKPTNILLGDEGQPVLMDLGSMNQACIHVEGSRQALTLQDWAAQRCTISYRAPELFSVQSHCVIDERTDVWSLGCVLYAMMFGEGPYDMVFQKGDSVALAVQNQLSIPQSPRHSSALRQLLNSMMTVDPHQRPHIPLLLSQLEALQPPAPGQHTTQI
Protocol: (§1) In order to measure the inhibitory activity (%) against protein kinases of the compounds of the present invention, biochemical assays were performed on a full kinase panel composed of 369 kinases.

FGFR4 = FGFR4 (Homo sapiens, UniProt P22455); settings: single concentration of 1 μM; panel of 369 kinases; read-out: kinase activity inhibited (%), FGFR4
Chain of FGFR4 (P22455 22-802): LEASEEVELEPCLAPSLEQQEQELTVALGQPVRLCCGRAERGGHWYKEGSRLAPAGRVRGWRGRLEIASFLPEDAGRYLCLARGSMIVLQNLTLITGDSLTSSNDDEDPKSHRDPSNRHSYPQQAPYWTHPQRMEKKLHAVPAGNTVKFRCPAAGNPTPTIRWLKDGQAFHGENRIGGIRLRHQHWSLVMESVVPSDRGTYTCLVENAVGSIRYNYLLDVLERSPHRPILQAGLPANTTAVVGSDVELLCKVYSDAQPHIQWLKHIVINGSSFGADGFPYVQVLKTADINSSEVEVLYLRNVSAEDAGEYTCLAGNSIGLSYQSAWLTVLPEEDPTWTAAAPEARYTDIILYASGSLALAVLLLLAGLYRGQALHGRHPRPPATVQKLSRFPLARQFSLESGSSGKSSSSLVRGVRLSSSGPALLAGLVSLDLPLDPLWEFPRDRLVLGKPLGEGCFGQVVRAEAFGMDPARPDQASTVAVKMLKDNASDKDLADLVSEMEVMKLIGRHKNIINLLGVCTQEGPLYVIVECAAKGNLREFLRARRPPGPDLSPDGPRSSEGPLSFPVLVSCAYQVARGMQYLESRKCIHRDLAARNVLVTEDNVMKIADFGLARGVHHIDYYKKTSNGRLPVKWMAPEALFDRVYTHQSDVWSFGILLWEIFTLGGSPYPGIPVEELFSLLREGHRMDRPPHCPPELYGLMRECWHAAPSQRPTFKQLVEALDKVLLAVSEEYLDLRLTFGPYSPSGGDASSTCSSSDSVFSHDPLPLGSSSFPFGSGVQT
Protocol: as §1

DDR1 = DDR1 (Homo sapiens, UniProt Q08345); settings: single concentration of 1 μM; panel of 369 kinases; read-out: kinase activity inhibited (%), DDR1
Protocol: as §1

CDK4 = CDK4 (Homo sapiens, UniProt P11802); settings: single concentration of 1 μM; panel of 369 kinases; read-out: kinase activity inhibited (%), CDK4
Chain of CDK4 (P11802 whole entry): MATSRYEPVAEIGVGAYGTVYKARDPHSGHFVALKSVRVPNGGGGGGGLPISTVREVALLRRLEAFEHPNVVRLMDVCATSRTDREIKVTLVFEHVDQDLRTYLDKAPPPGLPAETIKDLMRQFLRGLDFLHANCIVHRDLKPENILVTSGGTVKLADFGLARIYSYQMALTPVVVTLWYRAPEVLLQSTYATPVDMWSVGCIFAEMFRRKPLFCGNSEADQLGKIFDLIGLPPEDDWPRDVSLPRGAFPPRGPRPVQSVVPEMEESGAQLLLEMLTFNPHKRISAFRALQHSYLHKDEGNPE
Chain of CDK4 (P24385 whole entry partner): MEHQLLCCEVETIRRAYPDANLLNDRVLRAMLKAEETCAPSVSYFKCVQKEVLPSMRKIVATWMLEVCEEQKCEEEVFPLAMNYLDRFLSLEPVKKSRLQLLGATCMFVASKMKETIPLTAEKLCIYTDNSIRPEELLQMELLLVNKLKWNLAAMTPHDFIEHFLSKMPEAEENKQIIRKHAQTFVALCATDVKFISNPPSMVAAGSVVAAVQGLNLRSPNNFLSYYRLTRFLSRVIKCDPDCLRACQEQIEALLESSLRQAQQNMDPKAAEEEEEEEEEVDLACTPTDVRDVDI
Protocol: as §1

PCTAIRE1 = PCTAIRE1 (Homo sapiens, UniProt Q00536); settings: single concentration of 1 μM; panel of 369 kinases; read-out: kinase activity inhibited (%), PCTAIRE1
Protocol: as §1

LCK = LCK (Homo sapiens, UniProt P06239); settings: single concentration of 1 μM; panel of 369 kinases; read-out: kinase activity inhibited (%), LCK
Chain of LCK (P06239 whole entry): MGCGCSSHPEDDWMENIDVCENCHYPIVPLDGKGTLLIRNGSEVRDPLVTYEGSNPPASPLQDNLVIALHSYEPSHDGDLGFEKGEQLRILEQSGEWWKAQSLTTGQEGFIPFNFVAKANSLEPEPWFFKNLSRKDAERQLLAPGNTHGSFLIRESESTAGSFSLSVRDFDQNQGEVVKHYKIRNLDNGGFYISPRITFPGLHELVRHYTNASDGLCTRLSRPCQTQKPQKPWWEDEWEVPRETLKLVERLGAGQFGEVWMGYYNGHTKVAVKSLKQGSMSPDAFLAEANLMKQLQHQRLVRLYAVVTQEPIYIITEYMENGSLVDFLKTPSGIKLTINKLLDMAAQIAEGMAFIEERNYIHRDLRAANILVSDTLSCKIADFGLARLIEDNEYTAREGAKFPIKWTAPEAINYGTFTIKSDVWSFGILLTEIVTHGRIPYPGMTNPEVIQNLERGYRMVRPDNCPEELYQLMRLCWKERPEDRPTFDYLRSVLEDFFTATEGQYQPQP
Protocol: as §1

PHKg1 = PHKg1 (Homo sapiens, UniProt Q16816); settings: single concentration of 1 μM; panel of 369 kinases; read-out: kinase activity inhibited (%), PHKg1
Chain of PHKg1 (Q16816 whole entry): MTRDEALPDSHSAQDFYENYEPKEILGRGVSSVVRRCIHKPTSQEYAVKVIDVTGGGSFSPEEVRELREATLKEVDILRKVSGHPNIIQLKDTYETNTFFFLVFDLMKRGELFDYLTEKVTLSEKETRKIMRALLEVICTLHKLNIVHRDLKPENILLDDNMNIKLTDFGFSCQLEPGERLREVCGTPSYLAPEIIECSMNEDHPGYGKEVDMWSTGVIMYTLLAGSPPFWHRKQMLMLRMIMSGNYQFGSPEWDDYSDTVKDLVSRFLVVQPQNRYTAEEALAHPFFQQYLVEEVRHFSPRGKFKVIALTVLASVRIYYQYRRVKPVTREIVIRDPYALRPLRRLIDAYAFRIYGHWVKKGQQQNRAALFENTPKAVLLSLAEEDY
Protocol: as §1

FMS = FMS (Homo sapiens, UniProt P07333); settings: single concentration of 1 μM; panel of 369 kinases; read-out: kinase activity inhibited (%), FMS
Protocol: as §1

MAK = MAK (Homo sapiens, UniProt P20794); settings: single concentration of 1 μM; panel of 369 kinases; read-out: kinase activity inhibited (%), MAK
Chain of MAK (P20794 whole entry): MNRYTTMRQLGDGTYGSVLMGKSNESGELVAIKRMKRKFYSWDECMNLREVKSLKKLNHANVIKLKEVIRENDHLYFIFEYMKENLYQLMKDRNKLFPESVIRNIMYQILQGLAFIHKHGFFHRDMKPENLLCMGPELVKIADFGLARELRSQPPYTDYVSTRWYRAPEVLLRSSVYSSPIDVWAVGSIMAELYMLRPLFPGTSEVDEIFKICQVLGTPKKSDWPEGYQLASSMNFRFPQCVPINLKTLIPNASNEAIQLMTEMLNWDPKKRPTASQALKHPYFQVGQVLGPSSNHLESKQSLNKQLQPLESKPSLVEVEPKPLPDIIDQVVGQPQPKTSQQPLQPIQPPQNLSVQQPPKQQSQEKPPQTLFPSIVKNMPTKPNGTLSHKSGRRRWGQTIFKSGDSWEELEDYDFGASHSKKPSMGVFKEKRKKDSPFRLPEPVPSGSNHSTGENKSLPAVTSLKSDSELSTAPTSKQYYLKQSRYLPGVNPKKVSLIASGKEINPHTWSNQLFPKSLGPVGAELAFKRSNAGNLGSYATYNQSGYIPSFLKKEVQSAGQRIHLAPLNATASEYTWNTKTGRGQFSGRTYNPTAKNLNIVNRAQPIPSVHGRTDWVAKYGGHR
Protocol: as §1

CLK2 = CLK2 (Homo sapiens, UniProt P49760); settings: single concentration of 1 μM; panel of 369 kinases; read-out: kinase activity inhibited (%), CLK2
Chain of CLK2 (P49760 whole entry): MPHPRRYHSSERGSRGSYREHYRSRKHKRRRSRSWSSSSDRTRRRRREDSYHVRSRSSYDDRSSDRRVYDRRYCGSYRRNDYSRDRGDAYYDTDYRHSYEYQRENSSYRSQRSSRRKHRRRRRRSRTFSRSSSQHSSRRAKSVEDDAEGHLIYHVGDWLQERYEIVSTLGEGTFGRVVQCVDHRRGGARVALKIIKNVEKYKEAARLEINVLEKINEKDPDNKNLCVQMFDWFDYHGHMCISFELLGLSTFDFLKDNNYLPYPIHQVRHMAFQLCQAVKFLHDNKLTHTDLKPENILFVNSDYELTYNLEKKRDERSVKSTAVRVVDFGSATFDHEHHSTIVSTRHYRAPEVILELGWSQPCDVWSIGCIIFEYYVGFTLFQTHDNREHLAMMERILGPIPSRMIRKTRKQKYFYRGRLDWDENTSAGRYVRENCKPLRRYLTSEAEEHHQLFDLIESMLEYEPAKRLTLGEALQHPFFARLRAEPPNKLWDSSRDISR
Protocol: as §1

IRAK1 = IRAK1 (Homo sapiens, UniProt P51617); settings: single concentration of 1 μM; panel of 369 kinases; read-out: kinase activity inhibited (%), IRAK1
Chain of IRAK1 (P51617 whole entry): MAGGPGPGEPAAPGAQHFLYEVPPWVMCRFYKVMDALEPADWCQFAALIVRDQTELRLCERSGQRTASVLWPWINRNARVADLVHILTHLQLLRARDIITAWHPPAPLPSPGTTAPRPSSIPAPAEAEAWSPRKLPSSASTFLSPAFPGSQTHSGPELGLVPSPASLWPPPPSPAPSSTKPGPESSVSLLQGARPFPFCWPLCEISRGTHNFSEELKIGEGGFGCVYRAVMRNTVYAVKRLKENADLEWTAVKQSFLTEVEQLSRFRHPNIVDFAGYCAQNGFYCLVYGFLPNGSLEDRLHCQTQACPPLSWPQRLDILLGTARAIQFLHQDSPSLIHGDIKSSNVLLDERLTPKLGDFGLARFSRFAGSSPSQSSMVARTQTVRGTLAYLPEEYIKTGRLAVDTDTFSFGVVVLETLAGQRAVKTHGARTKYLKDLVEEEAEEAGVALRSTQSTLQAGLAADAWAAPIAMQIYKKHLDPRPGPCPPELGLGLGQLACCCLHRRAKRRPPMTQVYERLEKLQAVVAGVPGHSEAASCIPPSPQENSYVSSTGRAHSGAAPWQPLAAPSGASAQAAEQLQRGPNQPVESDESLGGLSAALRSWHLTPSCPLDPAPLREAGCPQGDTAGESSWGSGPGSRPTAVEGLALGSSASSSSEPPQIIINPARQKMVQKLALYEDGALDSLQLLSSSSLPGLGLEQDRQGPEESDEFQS
Protocol: as §1

Measured: inhibition at 1 µM

CCN1CCN(c2ccc(Nc3ncnc(-c4cccnc4Nc4c(Cl)c(OC)cc(OC)c4Cl)n3)cc2)CC1 [Example 1]
≥ 90%: MPSK1 | FGFR4 | DDR1 | CDK4 | PCTAIRE1 | LCK | PHKg1 | FMS | MAK | CLK2 | IRAK1
